Reference: the supplement of paper PMC5579334

Experiments:
HS-Sch-2 = test: relative IC50 (inflection point of fitted dose-response curve, CellTiter-Glo viability, 72 h; top asymptote may be below 50% inhibition); higher = less potent
In short: (§1)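 Viability of MPNST cell lines and primary human Schwann cells was read as CellTiter-Glo ATP luminescence after 72 h at 37 °C, 5% CO2, in 384-well plates seeded with 750–1000 cells per well. Each compound had been preprinted at five concentrations in 10-fold steps. Signals were scaled between vehicle and positive-control wells, duplicates averaged where present, and fitted with four-parameter logistic curves. Drug sensitivity score and relative IC50 (censored at the top concentration) come from those fits, and percent inhibition is taken at the top concentration.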

HS-PSS [1] = test: as above
In short: as §1

YST-1 = test: as above
In short: as §1

HS-PSS [2] = test: relative IC50 (inflection point of fitted dose-response curve, CellTox-Green cytotoxicity, 72 h; top asymptote may be below 50%); higher = less potent
In short: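 MPNST cell lines and primary human Schwann cells were grown for 72 h at 37 °C in 384-well plates containing five 10-fold compound dilutions. CellTox-Green, added before seeding at a final 1:1000 dilution, gave fluorescence from DNA released by disrupted cells, and signals were scaled to vehicle and positive-control wells. Curves were fitted with a four-parameter logistic model. Drug sensitivity score and relative IC50 come from these fits, with IC50 censored at the top concentration.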

Row | Compound | relative IC50 (HS-Sch-2) | relative IC50 (HS-PSS [1]) | relative IC50 (YST-1) | relative IC50 (HS-PSS [2])
1 | C[C@@H](Oc1cc(-n2cnc3ccc(CN4CCN(C)CC4)cc32)sc1C(N)=O)c1ccccc1C(F)(F)F | 0.0119 µM | 0.501 µM | 0.0209 µM | 3.2 µM
2 | CCn1c(=O)c(-c2cc[nH]n2)cc2c(C)nc(N)nc21 [Voxtalisib] | 2.18 µM | 2.33 µM | 1.12 µM | > 10 µM
3 | CC(C)[C@H]1C(=O)N[C@@H](CCCNC(=N)N)C(=O)NCC(=O)N[C@@H](CC(=O)O)C(=O)N[C@H](Cc2ccccc2)C(=O)N1C [Cilengitide] | 3.25 µM | > 10 µM | > 10 µM | > 10 µM
4 | Cc1cc(C)c(CNC(=O)c2cc(-c3ccc(CN4CCOCC4)cc3)cc3c2cnn3C2CCCC2)c(=O)[nH]1 [EPZ-5687] | > 10 µM | > 10 µM | > 10 µM | > 10 µM
5 | O=C(/C=C\n1cnc(-c2cc(C(F)(F)F)cc(C(F)(F)F)c2)n1)NNc1cnccn1 [Selinexor] | 0.211 µM | 0.404 µM | 0.115 µM | 1.46 µM
6 | Cc1cc(C(=O)NOCCO)c(Nc2ccc(I)cc2F)n(C)c1=O [AZD-8330] | 0.174 µM | 0.322 µM | > 10 µM | > 10 µM
7 | Cc1cc(Nc2cc(N3CCN(C)CC3)nc(/C=C/c3ccccc3)n2)n[nH]1 [ENMD-2076] | 0.763 µM | 1.06 µM | 0.361 µM | 2.29 µM
8 | COc1ccc(-c2ccc3ncc4c(c3c2)n(-c2ccc(N3CCNCC3)c(C(F)(F)F)c2)c(=O)n4C)cn1 [NVP-BGT226] | 0.0125 µM | 0.0404 µM | 0.0179 µM | 0.335 µM
9 | Cn1cc(C[C@@H](N)C(=O)O)c2ccccc21 [1-methyl-D-tryptophan] | > 5 µM | > 5 µM | > 5 µM | > 5 µM
10 | C[C@@H]1COC(Nc2ccc3ncnc(Nc4ccc(OCc5nccs5)c(Cl)c4)c3c2)=N1 [Varlitinib] | 1.64 µM | 0.821 µM | 0.247 µM | > 10 µM
11 | Cn1cc(C2=Nc3cc(NC(=O)C(N)C4CCCCC4)cc4c3C2=CNNC4=O)cn1 (stereo not given) | 0.108 µM | 0.0771 µM | 0.163 µM | > 10 µM
12 | CCn1cc(-c2ccnc3[nH]c(-c4cccc(CN(C)C)c4)cc23)c(-c2ccc(NC(=O)N(C)C)cc2)n1 | 0.157 µM | 0.142 µM | 0.00397 µM | > 1 µM
13 | N[C@@H]1CCCN(c2c(/C=C3\SC(=O)NC3=O)cccc2-c2ccccc2)C1 [AZD1208] | > 10 µM | > 10 µM | 0.204 µM | > 10 µM
14 | CC[C@@]1(O)C(=O)OCc2c1cc1n(c2=O)Cc2cc3ccccc3nc2-1 [Camptothecin] | 0.0634 µM | 0.199 µM | 0.0401 µM | 0.358 µM
15 | CCn1c(=O)c(-c2ccc(Cl)cc2Cl)cc2cnc(Nc3ccc(N4CCNCC4)c(F)c3)nc21 [FRAX486] | 0.133 µM | 1.75 µM | > 5 µM | > 5 µM
16 | CCS(=O)(=O)N1CCN(c2ccc(Nc3ncc(C(N)=O)c(NC4CC4)n3)cc2)CC1 [Cerdulatinib] | 1.88 µM | 1.27 µM | > 10 µM | > 10 µM
17 | NCC(=O)Nc1ccc(-n2nc(C(F)(F)F)cc2-c2ccc3c(ccc4ccccc43)c2)cc1 | 6 µM | 9.14 µM | 7.97 µM | 5.04 µM
18 | COc1ccc(CCc2nc3cc(-c4c(C)noc4C)ccc3n2C[C@H](C)N2CCOCC2)cc1Cl [SGC-CBP30] | 3.85 µM | 9.71 µM | 3.97 µM | > 25 µM
19 | COC[C@H](NC(=O)c1cnc(C)s1)C(=O)N[C@@H](COC)C(=O)N[C@@H](Cc1ccccc1)C(=O)[C@@]1(C)CO1 [Oprozomib] | 0.0167 µM | 0.148 µM | 0.0721 µM | 0.486 µM
20 | COc1ccc(-c2nc(N3CCOCC3)c3sc(CN(C)c4ncc(C(=O)NO)cn4)cc3n2)cn1 [CUDC-907] | 0.0243 µM | 0.0207 µM | 0.00312 µM | 0.0667 µM
21 | C1=N/C2=N/c3ccc(OCCN4CCCC4)c(c3)COC/C=C/COCc3cccc(c3)C(=C1)N2 [Pacritinib] | 1.76 µM | 1.18 µM | 1.94 µM | 2.78 µM
22 | CCNC(=O)c1noc(-c2cc(C(C)C)c(O)cc2O)c1-c1ccc(CN2CCOCC2)cc1 [Luminespib] | 0.011 µM | 0.0393 µM | 0.0103 µM | 0.0518 µM
23 | CC(=O)O[C@]1(C(C)=O)CC[C@H]2[C@@H]3C=C(C)C4=CC(=O)CC[C@]4(C)[C@H]3CC[C@@]21C [Megestrol acetate] | > 10 µM | > 10 µM | > 10 µM | > 10 µM
24 | Oc1ncc(N(CCCl)CCCl)c(O)n1 [Uramustine] | > 10 µM | > 10 µM | > 10 µM | > 10 µM
25 | Cc1c(F)cc(C(=O)NC2CC2)cc1-c1ccc(C(=O)NCC(C)(C)C)cn1 [Losmapimod] | > 10 µM | > 10 µM | 0.0249 µM | > 10 µM
